As to `N[C@@H](Cn1cc(Cc2ccccc2)nn1)C(=O)O` [Compound L7], the melting point was > 220 °C (dec.).
Consider `NC(Cc1cn(Cc2ccccc2)nn1)C(=O)O` (stereo not drawn) [Compound L1], for which the melting point is > 195 °C (dec.).
As to `CCOC(=O)Cn1cc(C[C@H](N)C(=O)O)nn1` [Compound L3], the melting point is 272 to 274 °C.

A word on the melting point: it is the temperature of the solid-liquid transition.

The values above are taken from US20090176968A1, “Preparation of Triazole Containing Metal Chelating Agents” (PAUL SCHERRER INSTITUT, priority 2006, published 2009).
